The source of these data is patent US4737497A, “Bis-dioxopiperazine derivatives, antitumor agents comprising them and compositions containing them” (Zenyaki Kogyo Kabushiki Kaisha, priority 1983, dated 1988).

One series concerns Sarcoma 37. The experiment in a line: Growth inhibition test on Sarcoma 37. Format: in vivo, mice (K-M). Conditions: once a day for 10 days; for G.I. (growth inhibition): tumor weight on 12th day; for ED50: Mus musculus, 288 h. How it is done:
The treated group to which the compound of the present invention was administered consisted of eight mice, while the control group consisted of sixteen mice. Four weeks old female mice (K-M, 20±2 g of body weight) were employed as host animals.
Tumor cells (0.2 ml of 1:5 suspension) of Sarcoma 37 were transplanted subcutaneously in the flank of each mouse. The treatment began one day after the transplantation and the prescribed dose (1.56-50 mg/kg) of dl-1,2-bis(4-morpholinomethyl-3,5-dioxopiperazin-1-yl)-propane was administered intraperitoneally (i.p.) or orally (p.o.) to the mice once a day for 10 days.
(§1) On the 12th day after the transplantation, the tumors of all the mice were excised and weighed. Antitumor activity of the test compound was evaluated by the rate of growth inhibition (G.I.%) which was calculated in the same manner as used in the animal test on Lewis lung carcinoma.

The nature of a further series: Solubility in water. Format: physicochemical. The settings on record: 25° C.
Series [1] can be described thus: Animal test on subacute toxicity. The settings on record: mouse, in vivo, ip; intraperitoneal, once a day for 8 days, female K-M mice, observed 14 days, Bliss-Finney method. How it is done:
The test group to which the compound of the present invention was administered consisted of ten mice, while the control group consisted of ten mice. Four weeks old female mice (K-M, 20±2 g of body weight) were employed as test animals.
LD50 value of the subacute toxicity was determined by the Bliss-Finney statistical method.

Series [2] concerns Colon adenocarcinoma No. 38. The experiment in a line: Growth inhibition test on Colon adenocarcinoma No. 38. Format: in vivo, mice (BDF1). Conditions: orally, once a day for 8 days, tumor weight on 30th day. On the procedure:
The treated group to which the compound of the present invention was administered consisted of seven mice, while the control group consisted of ten mice. Six weeks old male mice [BDF1 (G57BL/6×DBA/2), 25±2 g of body weight] were employed as hosts animals.
Tumor cells (40 mg of fragment) of Colon adenocarcinoma No. 38 were transplanted subcutaneously in inguinal region of each mouse. The treatment began one day after the transplantation and the prescribed dose of each test compound was administered orally to the mice once a day for 8 days.
On the 30th day after the transplantaion, the tumors of all the mice were excised and weighed. Antitumor activity of the test compound was evaluated by the rate of growth inhibition (G.I.%) which was calculated in the same manner as used in the animal test on Lewis lung carcinoma.

In a further series the test system is B-16 melanoma. Description: Growth inhibition test on B-16 melanoma. Format: in vivo, mice (BDF1 (C57BL/6×DBA/2)). Conditions: Mus musculus, B16, po, 480 h, orally, once a day for 8 days, tumor weight on 20th day, read-out: G.I. (growth inhibition); for inhibition in vivo at 60 mg/kg: 60 mg/kg daily; for inhibition in vivo at 40 mg/kg: 40 mg/kg daily; for inhibition in vivo at 20 mg/kg: 20 mg/kg daily. On the procedure: The treated group to which the compound of the present invention was administered consisted of seven mice, while the control group consisted of ten mice. Six weeks old male mice [BDF1 (C57BL/6×DBA/2), 25+2 g of body weight] were employed as host animals.
Tumor cells (5×10^5) of B-16 melanoma were transplanted subcutaneously in inguinal region of each mouse. The treatment began one day after the transplantation and the prescribed dose of each test compound was administered orally to the mice once a day for 8 days.
On the 20th day after the transplantation, the tumors of all the mice were excised and weighed. Antitumor activity of the test compound was evaluated by the rate of growth inhibition (G.I.%) which was calculated in the same manner as used in the animal test on Lewis lung carcinoma.

The test system of the next series is Hepatoma 22. The experiment in a line: Growth inhibition test on Hepatoma 22. Conditions: 25 mg/kg daily, orally, once a day for 9 days; tumor weight on 12th day. Format: in vivo, mice (K-M). On the procedure:
The treated group to which the compound of the present invention was administered consisted of ten mice, while the control group consisted of twenty mice. Four weeks old female mice (K-M, 20±2 g of body weight) were employed as host animals.
Tumor cells (a 2 mm^3 fragment) of Hepatoma 22 were transplanted subcutaneously in the flank of each mouse. The treatment began one day after the transplantation and the prescribed dose of the test compound was administered orally to the mice once a day for 9 days.
as §1

A further series concerns Lewis lung carcinoma. Description: Growth inhibition test on Lewis lung carcinoma. Format: in vivo, mice (BDF1 (C57BL/6×DBA/2)). Conditions: Mus musculus, po, 480 h, orally, once a day for 8 days, tumor weight on 20th day, read-out: G.I. (growth inhibition); for inhibition in vivo at 60 mg/kg: 60 mg/kg daily; for inhibition in vivo at 40 mg/kg: 40 mg/kg daily. On the procedure: The treated group to which the compound of the present invention was administered consisted of seven mice, while the control group consisted of ten mice. Six weeks old male mice [BDF1 (C57BL/6×DBA/2), 25±2 g of body weight] were employed as host animals.
Tumor cells (5×10^5) of Lewis lung carcinoma were transplanted subcutaneously in inguinal region of each mouse. The treatment began one day after the transplantation and the prescribed dose of each test compound was administered orally to the mice once a day for 8 days.
On the 20th day after the transplantation, the tumors of all the mice were excised and weighed. Antitumor activity of the test compound was evaluated by the rate of growth inhibition (G.I.%) which was calculated with the following formula. [formula] T: mean tumor weight of treated mice C: mean tumor weight of control mice

Series [3] in a line: Animal test on acute toxicity. Conditions: mouse, in vivo, ip; intraperitoneal, male ddY mice, observed 14 days, Litchfield-Wilcoxon method. On the procedure: The test group to which the compound of the present invention was administered consisted of ten mice. Five weeks old male mice (ddY, 23±2 g of body weight) were employed as test animals.

Values after ≈ are worked out from the molar mass of the structure shown.

Broadly, the ED50 is the dose at which the effect has come halfway, by size or by number of responders. As a reminder, the solubility is the dissolved amount per volume that the medium holds. For orientation: LD50 means the dose expected to kill half of the subjects tested. Read a high LD50 as a less toxic substance. Turning to `CC(CN1CC(=O)N(CN2CCOCC2)C(=O)C1)N1CC(=O)N(CN2CCOCC2)C(=O)C1` (racemic) [dl-1,2-Bis(4-morpholinomethyl-3,5-dioxopiperazin-1-yl)-propane], the “G.I. (growth inhibition)” value is 33.2% in the series with Sarcoma 37 (1.56 mg/kg daily, i.p.); 56.1% in the series on Sarcoma 37 (3.12 mg/kg daily, i.p.); 39.3% in the series on Sarcoma 37 (3.12 mg/kg daily, p.o.); 72.7% with Sarcoma 37 (6.25 mg/kg daily, i.p.); 68.8% in the series on Sarcoma 37 (6.25 mg/kg daily, p.o.); 82.4% with Sarcoma 37 (12.5 mg/kg daily, i.p.). Besides, the “G.I. (growth inhibition)” value came out at 94.2% with Sarcoma 37 (12.5 mg/kg daily, p.o.); 94.6% in the series on Sarcoma 37 (25 mg/kg daily, i.p.); 100% with Sarcoma 37 (25 mg/kg daily, p.o.); 100% with Sarcoma 37 (50 mg/kg daily, i.p.); 91.6% in series [2] (60 mg/kg daily); 42.7% in the series on Hepatoma 22. The 50% effective dose (ED50) in the series on Sarcoma 37 (ip) turned out to be 3.1 mg/kg; in the series with Sarcoma 37 (po) it was 4.3 mg/kg. Further, the solubility in the series “Solubility in water” is 20 mg/mL (≈ 42.9 mM). In addition, the LD50 at 336 h in series [1] turned out to be 178 mg/kg; in series [3], 255 mg/kg. For the same compound, the figures for the inhibition in vivo at 60 mg/kg in the series on B-16 melanoma and in the series on Lewis lung carcinoma were 93.8% and 89.3%, respectively.
Regarding `CC(CN1CC(=O)N(CN2CCSCC2)C(=O)C1)N1CC(=O)N(CN2CCSCC2)C(=O)C1` (racemic) [dl-1,2-Bis(4-thiomorpholinomethyl-3,5-dioxopiperazin-1-yl)-propane], the inhibition in vivo at 40 mg/kg in the series with B-16 melanoma is 77.5%. This compound also came in with an LD50 at 336 h in series [3] of 330 mg/kg.
As to `CC1CC(C)CN(CN2C(=O)CN(CC(C)N3CC(=O)N(CN4CC(C)CC(C)C4)C(=O)C3)CC2=O)C1` (racemic) [dl-1,2-Bis[4-(3,5-dimethylpiperidinomethyl)-3,5-dioxopiperazin-1-yl]-propan], the inhibition in vivo at 60 mg/kg amounted to 91.2% in the series on B-16 melanoma and 77.4% with Lewis lung carcinoma.
Regarding `CC(CN1CC(=O)N(CN2CCN(C)CC2)C(=O)C1)N1CC(=O)N(CN2CCN(C)CC2)C(=O)C1` (racemic) [dl-1,2-Bis[4-(N-methylpiperazinomethyl)-3,5-dioxopiperazin-1-yl]-propane], in the series on Lewis lung carcinoma, the inhibition in vivo at 60 mg/kg came to 53.5%. The compound also came in with an LD50 at 336 h in series [3] of 300 to 400 mg/kg.
As for `CC(CN1CC(=O)N(CN2CCN(c3ccccc3)CC2)C(=O)C1)N1CC(=O)N(CN2CCN(c3ccccc3)CC2)C(=O)C1` (racemic) [dl-1,2-Bis[4-(N-phenylpiperazinomethyl)-3,5-dioxopiperazin-1-yl]-propane], in the series on B-16 melanoma, the inhibition in vivo at 20 mg/kg was determined as 71%. Besides, the inhibition in vivo at 40 mg/kg with Lewis lung carcinoma stood at 89%. Besides, the median lethal dose (LD50) at 336 h in series [3] is 100 mg/kg.
Regarding `CC(CN1CC(=O)N(CN2CCOCC2)C(=O)C1)N1CC(=O)NC(=O)C1` (racemic) [dl-1-(4-Morpholinomethyl-3,5-dioxopiperazin-1-yl)-2-(3,5-dioxopiperazin-1-yl)-propane], the “G.I. (growth inhibition)” value in series [2] (40 mg/kg daily) is on record as 74.1%. Moreover, the inhibition in vivo at 40 mg/kg in the series on B-16 melanoma is 76.1%; in the series on Lewis lung carcinoma, 83.9%.
Take `CC(CN1CC(=O)N(CN2CCN(c3ccccc3)CC2)C(=O)C1)N1CC(=O)NC(=O)C1` (racemic) [dl-1-[4-(N-Phenylpiperazinomethyl)-3,5-dioxopiperazin-1-yl]-2-(3,5-dioxopiperazin-1-yl)-propane]: the “G.I. (growth inhibition)” value in series [2] (40 mg/kg daily) was found to be 93.5%. The inhibition in vivo at 20 mg/kg with B-16 melanoma is 60.8%. The inhibition in vivo at 40 mg/kg with Lewis lung carcinoma worked out at 76.2%. Besides, the LD50 at 336 h in series [3] was more than 350 mg/kg.
For the compound `O=C1CN(CCN2CC(=O)N(CN3CCSCC3)C(=O)C2)CC(=O)N1CN1CCSCC1` [1,2-Bis(4-thiomorpholinomethyl-3,5-dioxopiperazin-1-yl)-ethane], the inhibition in vivo at 60 mg/kg in the series with B-16 melanoma is 73.5%.
Regarding `CC1CC(C)CN(CN2C(=O)CN(CCN3CC(=O)N(CN4CC(C)CC(C)C4)C(=O)C3)CC2=O)C1` (centres unmarked) [1,2-Bis[4-(3,5-dimethylpiperidinomethyl)-3,5-dioxopiperazin-1-yl]-ethane], the “G.I. (growth inhibition)” value in series [2] (60 mg/kg daily) stood at 83.1%. For the same compound, the inhibition in vivo at 60 mg/kg worked out at 68.9% in the series with B-16 melanoma and 67.2% in the series with Lewis lung carcinoma. The compound also registered an LD50 at 336 h in series [3] of 400 to 500 mg/kg.
The like results for `O=C1CN(CCN2CC(=O)N(CN3CCN(c4ccccc4)CC3)C(=O)C2)CC(=O)N1CN1CCN(c2ccccc2)CC1` [1,2-Bis[4-(N-phenylpiperazinomethyl)-3,5-dioxopiperazin-1-yl]-ethane] were, in that order, 97.9%, 91.9%, 78.9% and 200 to 300 mg/kg.
For `O=C1CN(CCN2CC(=O)N(CN3CCOCC3)C(=O)C2)CC(=O)N1CN1CCOCC1` [1,2-bis(4-morpholinomethyl-3,5-dioxopiperazin-1-yl)-ethane, reference compound], the LD50 at 336 h in series [1] is 59.3 mg/kg; in series [3] it was 280 mg/kg. Moreover, the “G.I. (growth inhibition)” value worked out at 72.8% in series [2] (60 mg/kg daily) and 12.9% with Hepatoma 22. Further, the inhibition in vivo at 60 mg/kg came to 48.9% with B-16 melanoma and 22.6% with Lewis lung carcinoma.
